Reference: patent EP4793267A1, “CARBONATE CONTAINING LIPID COMPOUNDS AND COMPOSITIONS FOR INTRACELLULAR DELIVERY OF THERAPEUTIC AGENTS” (ModernaTX, Inc., priority 2019, dated 2021)

Key:
[1] = test system: hepatocyte protein expression (hEPO); assay: Expression of hEPO induced by LNPs comprising the lipid and hEPO mRNA in mice; type: in vivo; details: LNP with DSPC, cholesterol, PEG-1, mRNA encoding hEPO, CD-1 mice; for hEPO AUC: intravenous; for Mean 6 hr hEPO Concentration (mIU/mL): serum, 6 h after intravenous injection
Experimental: (§1) To assess potency of expression and metabolic stability of lipids of the disclosure the hepatocyte protein expression (hEPO) following administration of a nanoparticle of the disclosure (e.g., a loaded LNP) to mice was measured.
(§2) Lipid nanoparticles (LNPs) including DSPC as a phospholipid, cholesterol as a structural lipid, PEG-1 as a PEG lipid, a compound according to Formula (A), (A1), (A2), (A3), (B), (1), (I'), (I-X), (I-Y), (I-Ya) (IA), (Ia), (Ib), (Ic), (Id), (Ie), (If), (Ig), (II), (IIa), or (IIb), and an mRNA encoding hEPO were intravenously administered to CD-1 mice. The concentration of hEPO in serum was tested at 6 h after injection. […] Table 2. Expression of hEPO induced by administration of LNPs comprising lipids of the disclosure in mice and residual lipid levels in the liver.

[2] = Residual parent lipid levels in the liver after LNP administration to mice; type: in vivo; details: 24 h after intravenous LNP administration, CD-1 mice
Experimental: as §1, §2

Structure (SMILES) | Parent Lipid Remaining (nmol/g liver tissue) at 24 h [2] | hEPO AUC [1] | Mean 6 hr hEPO Concentration (mIU/mL) [1]
CCCCCCCCCOC(=O)OCCCCCCN(CCO)CCCCCCCC(=O)OC(CCCCCCCC)CCCCCCCC [Compound 6, Heptadecan-9-yl 8-((2-hydroxyethyl)(6-(((nonyloxy)carbonyl)oxy)hexyl)amino)octanoate] | 3 ± 1 nmol/g liver tissue | 8.19E+06 | 509181.4 mIU/mL
CCCCCCCCC(CCCCCCCC)OC(=O)CCCCCCCN(CCO)CCCCCCOC(=O)OCCC(CCCCC)CCCCC [Compound 64, Heptadecan-9-yl 8-((2-hydroxyethyl)(6-((((3-pentyloctyl)oxy)carbonyl)oxy)hexyl)amino)octanoate] | 72 ± 17 nmol/g liver tissue | 1.11E+07 | 735556.2 mIU/mL

Now from value to compound, other results behind:

Parent Lipid Remaining (nmol/g liver tissue) at 24 h [2] | Structure (SMILES) | hEPO AUC [1] | Mean 6 hr hEPO Concentration (mIU/mL) [1]
364 ± 58 nmol/g liver tissue | CCCCCCCCC(CCCCCCCC)OC(=O)CCCCCCCN(CCCCCCOC(=O)OCCC(CCCCCC)CCCCCC)CCCNc1c(NC)c(=O)c1=O [Compound 65, Heptadecan-9-yl 8-((6-((((3-hexylnonyl)oxy)carbonyl)oxy)hexyl)(3-((2-(methylamino)-3,4-dioxocyclobut-1-en-1-yl)amino)propyl)amino)octanoate] | 7.76E+06 | 521341.6 mIU/mL
67 ± 8 nmol/g liver tissue | CCCCCCCCC(CCCCCCCC)OC(=O)CCCCCCCN(CCO)CCCCCCOC(=O)OCCC(CCCCCC)CCCCCC [Compound 66, Heptadecan-9-yl 8-((6-((((3-hexylnonyl)oxy)carbonyl)oxy)hexyl)(2-hydroxyethyl)amino)octanoate] | 9.77E+06 | 641899.1 mIU/mL
94 ± 15 nmol/g liver tissue | CCCCCCCCC(CCCCCCCC)OC(=O)CCCCCCCN(CCCCCCOC(=O)OCCC(CCCCC)CCCCC)CCCNc1c(NC)c(=O)c1=O [Compound 67, Heptadecan-9-yl 8-((3-((2-(methylamino)-3,4-dioxocyclobut-1-en-1-yl)amino)propyl)(6-((((3-pentyloctyl)oxy)carbonyl)oxy)hexyl)amino)octanoate] | 1.31E+07 | 891982.2 mIU/mL
